{
  "source": "patent US10335503B2",
  "about": "“Compound that specifically binds to AMPA receptor” (Public University Corporation Yokohama City University, priority 2015, dated 2019)",
  "key": {"AMPA receptor [1]": {"tested_on": "AMPA receptor", "test": "Electrophysiological experiment: AMPA current by whole-cell recording in acute hippocampus section", "format": "cell-based, rat", "settings": "150 μM in ACSF for 15 minutes, CA1 pyramidal cell, ground state converted as 1", "description": "(§1) In the LC-MS/MS experiment, all of the synthesized compounds were dissolved in 100% DMSO so as to have a concentration of 2.5 mM, diluted with physiological saline water immediately before administration (PEPA (1.2 pmol/g), M-1 (12 pmol/g), K-2 (12 pmol/g), M-3 (60 pmol/g), and M-2 (240 pmol/g)), and administered by the parenteral route. In the electrophysiological experiment, PEPA and K-2 were dissolved in 100% DMSO so as to have a concentration of 150 mM, diluted with ACSF as a reflux liquid immediately before the experiment so as to have a concentration of 150 μM and then used. […]\nA 7- to 8-week-old male SD rat was used. […] The section was left to stand still in ACSF at room temperature for 60 minutes, and then the AMPA current was measured by a whole-cell recording method. 100 μM of picrotoxin and 100 μM of DL-APV were administered under the condition that the ACSF was refluxed at a rate of 3 ml/min, and then only the AMPA current was isolated and measured.\nThe recording electrode was placed on a pyramidal cell in CA1, and the exciting electrode was placed on the Schaffer fiber separated away from the recording cell by 100 to 200 μm. […] The AMPA current in the ground state was recorded for 5 minutes, reflux was thereafter performed using ACSF added with PEPA or K-2 for 15 minutes, and then the AMPA current was recorded in the reflux liquid not containing PEPA or K-2 for 30 minutes. […]"}, "[2]": {"test": "LC-MS/MS experiment: accumulation of compound in hippocampal tissue", "format": "in vivo", "settings": "rat, 15 minutes from administration, compared among five compounds (FIG. 1)", "description": "as §1\nThe LC-MS/MS experiment and the biochemical experiment were performed after a rat was allowed to get to sleep by inhalation of isoflurane while anesthesia was maintained using a dedicate carburetor at a concentration of 1.5%. […] In the LC-MS/MS experiment, the hippocampus region was collected in a thickness of approximately 2 mm from the extracted whole brain using Brain matrix (ASI instruments, U.S.), the tissue weight thereof was measured, and then the hippocampus region was put into a 1.5-ml conical tube. […]\nAs for the preliminary reviewing of measurement conditions, an optimal dilution solvent and an optimal dilution magnification for each compound were determined using the hippocampal tissue (Table 4). […]"}, "[3]": {"tested_on": "AMPA receptors (GluA1 to 3)", "test": "In vivo PET imaging of rat with shRNA against GluA1 to 3 in left striatum, scramble RNA in right striatum", "settings": "seven rats, shRNA side vs scramble side of striatum", "description": "The PET imaging was performed using micro PET (Focus 220; Siemens Medical Solution). PET imaging experiment using a rat: After the rat was allowed to get to sleep by isoflurane (DS Pharma Animal Health Co., Ltd., Japan), anesthesia was maintained at an isoflurane concentration of 1.5% (air 2 L/min), and then the intravenous line was secured from the tail vein by a 24G Surflo indwelling needle (TERUMO CORPORATION, Japan). The rat was fixed to the PET imaging base, and then radiation imaging for checking the position was performed before imaging. Thereafter, 50% DMSO or K-2 dissolved in 50% DMSO was administered by the parenteral route, and after 3 minutes from administration, the radio-labeled K-2 (about 4 MBq) was administered. […]\nA summation image was constructed and offset was removed therefrom with a 0.5-mm Hanning filter so as to reconstruct a dynamic image. The reconstructed image was analyzed using PMOD image analysis software (PMOD technologies) by combining VOIs including a plurality of regions of the striatum, the hippocampus, the cerebellum, the brain stem, and the like with a region formed on the template MRI image. The calculation value used in quantitative determination was % SUV (% of standardized uptake value) and obtained by the following formula; % SUV=amount of radiation of each tissue surrounded by VOI (MBq)/administered amount of radiation (MBq)×weight (g) […]"}, "AMPA receptor [4]": {"tested_on": "AMPA receptor", "test": "In vivo PET imaging using rat, with blocking by non-radio-labeled K-2", "description": "as §1\nThe PET imaging was performed using micro PET (Focus 220; Siemens Medical Solution). PET imaging experiment using a rat: After the rat was allowed to get to sleep by isoflurane (DS Pharma Animal Health Co., Ltd., Japan), anesthesia was maintained at an isoflurane concentration of 1.5% (air 2 L/min), and then the intravenous line was secured from the tail vein by a 24G Surflo indwelling needle (TERUMO CORPORATION, Japan). The rat was fixed to the PET imaging base, and then radiation imaging for checking the position was performed before imaging. Thereafter, 50% DMSO or K-2 dissolved in 50% DMSO was administered by the parenteral route, and after 3 minutes from administration, the radio-labeled K-2 (about 4 MBq) was administered. During the PET imaging, the body temperature was maintained to 37±0.5° C. using a feedback type heating plate (BWT-100A; Bio Research Center, Japan). After the imaging, the intravenous line was removed, the administration of isoflurane was stopped, and then the rat was removed from the PET imaging base and returned to the home cage. The rat was raised in the room in which imaging was performed during 1 week after the imaging, and then the rat was returned to the normal rat group rearing room.\nA summation image was constructed and offset was removed therefrom with a 0.5-mm Hanning filter so as to reconstruct a dynamic image. The reconstructed image was analyzed using PMOD image analysis software (PMOD technologies) by combining VOIs including a plurality of regions of the striatum, the hippocampus, the cerebellum, the brain stem, and the like with a region formed on the template MRI image. The calculation value used in quantitative determination was % SUV (% of standardized uptake value) and obtained by the following formula; % SUV=amount of radiation of each tissue surrounded by VOI (MBq)/administered amount of radiation (MBq)×weight (g)"}},
  "data": [
    {"smiles": "NC(=O)COc1c(F)cc(SCCNS(=O)(=O)c2ccccc2)cc1F", "note": "[PEPA, 2-[2,6-Difluoro-4-({2-[(phenylsulfonyl)amino]ethyl}thio)phenoxy]acetamide, reference compound]", "values": [
      {"measurement": "ratio of AMPA current to reference value", "setting": "AMPA receptor [1]", "value": "2.4±0.13"},
      {"measurement": "accumulation of compound in hippocampal tissue", "setting": "[2]", "value": "highest"}
    ]},
    {"smiles": "[11CH3]N(CCSc1cc(F)c(OCC(N)=O)c(F)c1)S(=O)(=O)c1ccccc1", "note": "[Radio-labeled K-2, {4-[2-(Benzenesulfonyl-[^11C]Methyl-Amino)-Ethylsulfanil]-2,6-Difluoro-Phenoxy}-Acetamide]", "values": [
      {"measurement": "decrease in the PET image value at the shRNA side", "setting": "[3]", "value": "about 30%"},
      {"measurement": "BPnd (estimated binding potential)", "setting": "AMPA receptor [4]; Logan Plot method, blocking using the non-radio-labeled K-2, striatum and hippocampus", "value": "significantly lowered"},
      {"measurement": "uptake of the brain stem", "setting": "AMPA receptor [4]; blocking by non-radio-labeled K-2", "value": "not changed by blocking"},
      {"measurement": "degree of loss of specific binding after blocking", "setting": "AMPA receptor [4]; prior administration of 0.05 mg/kg of non-radio-labeled K-2, compared to 0.5 mg/kg", "value": "small"},
      {"measurement": "specific accumulation of radio-labeled K-2 after blocking", "setting": "AMPA receptor [4]; prior administration of 0.5 mg/kg of non-radio-labeled K-2, 3 minutes before", "value": "lost"},
      {"measurement": "brain uptake", "setting": "AMPA receptor [4]; rat, PET, about 4 MBq", "value": "extremely high brain uptake"}
    ]}
  ]
}
